Experimental findings from PMC10385579, “Design, Synthesis, and Biological Evaluation of Indole-2-carboxamides as Potential Multi-Target Antiproliferative Agents” (Pharmaceuticals, 2023) are described below.

Common to all, as to type: cell-based, human
Assay [1] concerns caspase-3. Briefly: Caspase 3 assay in A-549 cells. Conditions: for Caspase-3 Conc: untreated control 66 pg/mL. The procedure:
Caspases play a crucial function in the induction and completion of apoptosis. Caspase-3 is an essential caspase that cleaves different proteins in cells, resulting in apoptosis. […]
4.2.5. Caspase-3 activation assay
Allow all reagents to reach room temperature before use. Gently mix all liquid reagents prior to use. Determine the number of 8-well strips needed for the assay. Insert these in the frame(s) for current use. Add 100 μl of the Standard Diluent Buffer to the zero standard wells. Well(s) reserved for chromogen blank should be left empty. Add 100 μl of standards and controls or diluted samples to the appropriate microtiter wells. The sample dilution chosen should be optimized for each experimental system. Tap gently on side of plate to mix. Cover wells with plate cover and incubate for 2 hours at room temperature. Thoroughly aspirate or decant solution from wells and discard the liquid, Wash wells 4 times. Pipette 100 μl of Caspase-3 (Active) Detection Antibody solution into each well except the chromogen blank(s). Tap gently on the side of the plate to mix. Cover plate with plate cover and incubate for 1 hour at room temperature. Thoroughly aspirate or decant solution from wells and discard the liquid, Wash wells 4 times. Add 100 μl Anti-Rabbit IgG HRP Working Solution to each well except the chromogen blank(s). Prepare the working dilution as described in Preparing IgG HRP. Cover wells with the plate cover and incubate for 30 minutes at room temperature. Thoroughly aspirate or decant solution from wells and discard the liquid. Wash wells 4 times. Add 100 μl of Stabilized Chromoge n to each well. The liquid in the wells will begin to turn blue. Incubate for 30 minutes at room temperature and in the dark. The incubation time for chromogen substrate is often determined by the microtiter plate reader used. Many plate readers have the capacity to record a maximum optical density (O.D.) of 2.0. The O.D. values should be monitored, and the substrate reaction stopped before the O.D. of the positive wells exceeds the limits of the instrument. The O.D. values at 450 nm can only be read after the Stop Solution has been added to each well. If using a reader that records only to 2.0 O.D., stopping the assay after […]
Add 100 μl of Stop Solution to each well. Tap side of plate gently to mix. The solution in the wells should change from blue to yellow. Read the absorbance of each well at 450 nm having blanked the plate reader against a chromogen blank composed of 100 μl each of Stabilized Chromogen and Stop Solution. Read the plate within 2 hours after adding the Stop Solution. Use a curve fitting software to generate the standard curve. A four-parameter algorithm provides the best standard curve fit. Read the concentrations for unknown samples and controls from the standard curve. Multiply value(s) obtained for sample(s) by the appropriate dilution factor to correct for the dilution in step 3. Samples producing signals greater than that of the highest standard should be diluted in Standard Diluent Buffer and reanalyzed.

In assay [2] the test system is caspase-8. Briefly: Caspase-8 level assay in A-549 cells. The procedure: See Supplementary Materials.
4.2.6. Caspase-8 activation assay […]
caspase8, and lysed with Cell Extraction Buffer. This lysate was diluted in Standard Diluent Buffer over the range of the assay and measured for human active caspase-8 content. (Cells are Plated in a density of 1.2 – 1.8 × 10,000 cells/well in a vo lume of 100µl complete growth medium + 100 ul of the tested compound per well in a 96-well plate for 24 hours before the enzyme assay for Tubulin.). The absorbance of each microwell was read on a spectro-photometer at 450 nm. A standard curve is prepared from 7human Caspase-8 standard dilutions and human Caspase-8 concentration determined. […]

In assay [3] the test system is Bax. Briefly: Bax level assay in A-549 cells. How it is done:
caspase8, and lysed with Cell Extraction Buffer. This lysate was diluted in Standard Diluent Buffer over the range of the assay and measured for human active caspase-8 content. […]
4.2.7. Bax activation assay
Bring all reagents, except the human Bax-α Standard, to room temperature for at least 30 minutes prior to opening. The human Bax-α Standard solution should not be left at room temperature for more than 10 minutes. All standards, controls and samples should be run in duplicate. Refer to the Assay Layout Sheet to determine the number of wells to be used and put any remaining wells with the desiccant back into the pouch and seal the ziploc. Store unused wells at 4 °C. Pipet 100 μL of Assay Buffer into the S0 (0 pg/mL standard) wells. Pipet 100 μL of Standards #1 through #6 into the appropriate wells. Pipet 100 μL of the Samples into the appropriate wells. Tap the plate gently to mix the contents. Seal the plate and incubate at room temperature on a plate shaker for 1 hour at ~500 rpm. Empty the contents of the wells and wash by adding 400 μL of wash solution to every well. Repeat the wash 4 more times for a total of 5 washes. After the final wash, empty or aspirate the wells and firmly tap the plate on a lint free paper towel to remove any remaining wash buffer.
Pipet 100 μL of yellow Antibody into each well, except the Blank. Seal the plate and incubate at room temperature on a plate shaker for 1 hour at ~500 rpm. Empty the contents of the wells and wash by adding 400 μL of wash solution to every well. Repeat the wash 4 more times for a total of 5 washes. After the final wash, empty or aspirate the wells and firmly tap the plate on a lint free paper towel to remove any remaining wash buffer. Add 100 μL of blue Conjugate to each well, except the Blank. Seal the plate and incubate at room temperature on a plate shaker for 30 minutes […]
Pipet 100 μL of Substrate Solution into each well. Incubate for 30 minutes at room temperature on a plate shaker at ~500 rpm. Pipet 100 μL Stop Sol ution to each well. Blank the plate reader against the Blank wells, read the optical density at 450 nm. Calculate the average net Optical Density (OD) bound for each standard and sample by subtracting the average Blank OD from the average OD for each standard and sample. Using linear graph paper, plot the Average Net OD for each standard versus Bax concentration in each standard. Approximate a straight line through the points.
The concentration of Bax in the unknowns can be determined by interpolation. […]

For assay [4], the system named is Bcl-2. Briefly: Bcl-2 level assay in A-549 cells. The procedure:
Compounds Va and Vg were explored further for their impact on caspase-8, Bax, and Bacl-2 levels against a human epithelial cancer cell line (A-549) using doxorubicin as a reference. See Supplementary Materials. […]
4.2.8. Bcl-2inhibition assay
Mix all reagents thoroughly without foaming before use. Wash the microwells twice with approximately 300 μL Wash Buffer per well with thorough aspiration of microwell contents between washes. Take caution not to scratch the surface of the microwells. After the last wash, empty the wells and tap microwell strips on absorbent pad or paper towel to remove excess Wash Buffer. Use the microwell strips immediately after washing or place upside down on a wet absorbent paper for not longer than 15 minutes. […] Add 100 μL of Sample […]
Diluent in duplicate to all standard wells and to the blank wells. Prepare standard (1:2 dilution) in duplicate ranging from 32 ng/mL to 0.5 ng/mL. Add 100 μL of Sample Diluent, in duplicate, to the blank wells. Add 80 μL of Sample Diluent, in duplicate, to the sample wells. Add 20 μL of each Sample, in duplicate, to the designated wells. Add 50 μL of diluted biotin-conjugate to all wells, including the blank wells. Cover with a plate cover and incubate at room temperature, on a microplate shaker at 100 rpm if available, for 2 hours. Remove plate cover and empty the wells.
Wash microwell strips 3 times as described in step 2. Add 100 μL of diluted Streptavidin-HRP to all wells, including the blank wells. Cover with a plate cover and incubate at room temperature, on a microplate shaker at 100 rpm if available, for 1 hour. Remove plate cover and empty the wells.
Wash microwell strips 3 times as described in step 2. Proceed to the next step. Pipette 100 μl of mixed TMB Substrate Solution to all wells, including the blanks. Incubate the microwell strips at room temperature (18° to 25°C) for about 15 minutes, if available on a rotator set at 100 rpm.
Avoid direct exposure to intense light. The point, at which the substrate reaction is stopped, is often determined by the ELISA reader. Many ELISA readers record absorbance only up to 2.0
O.D. Therefore, the color development within individual microwells must be watched by the person running the assay and the substrate reaction stopped before positive wells are no longer properly detectable. Stop the enzyme reaction by quickly pipetting 100 μL of Stop Solution into each well, including the blank wells. It is important that the Stop Solution is spread quickly and uniformly throughout the microwells to completely inactivate the enzyme. Results must be read immediately after the Stop Solution is added or within one hour if the microwell strips are stored at 2 - 8°C in the dark. Read absorbance of each microwell on a spectrophotometer using 450 nm as the primary wavelength.

In the case of `COc1cccc2c1C(=O)c1c(O)c3c(c(O)c1C2=O)C[C@@](O)(C(=O)CO)C[C@@H]3O[C@H]1C[C@H](N)[C@H](O)[C@H](C)O1` [Doxorubicin, reference compound], the “Caspase-3 Conc” value in assay [1] was found to be 505 ± 4 pg/mL; in assay [1] (listed as doxorubicin), 505 ± 4.0 pg/mL. Further, the “Caspase-3 Fold Change” value in assay [1] (vs untreated control) amounted to 7.5. Besides, in assay [2] (control 0.10), the “Caspase-8 Conc” value amounted to 1.80 ng/mL. Besides, the “Caspase-8 Fold Change” value in assay [2] (vs control) is 18. In addition, the “Bax Conc” value in assay [3] (control 9) is on record as 280 pg/mL. In addition, the “Bax Fold Change” value in assay [3] (vs control) is on record as 31. Moreover, the “Bcl-2 Conc” value in assay [4] (control 5) is on record as 0.90 ng/mL. Moreover, the “Bcl-2 Fold Reduction” value in assay [4] (vs control) came to 6.
